Experimental data reported in patent US11628168B2, “Medical application of pyrimidine sulfonamides derivatives” (CHINESE PLA GENERAL HOSPITAL, priority 2018, dated 2023).

Experiments:
Type in all cases: in vivo, SD rats
[1] = test system: right ventricular hypertrophy of rats in low-pressure low-oxygen cabin; assay: Rat right ventricular hypertrophy index, low-pressure low-oxygen model; settings: for Full heart / RV (weight of the right ventricles) / RV/(LV + IS) right ventricular hypertrophy index: x±s
Procedure: (§1) 40 healthy SD rats (180-220 g, male) are purchased from Beijing Vital River Laboratory Animal Technology Co. Ltd, belong to the SPF grade and have the license number of SCXK(Jing)2016-0006. The healthy SD rats are fed in a low-pressure oxygen cabin, and regularly fed with a complete nutritional feed under the conditions of the temperature of 22 to 25° C. and the humidity of 30% to 50%.
(§2) Solvent configuration: 5% of DMSO and 95% of normal saline with 10% of HP-β-CD, and pH=9.
(§3) An experimental group A: a low-pressure low-oxygen cabin, and intragastric administration of sc0062 (15 mg/kg) as well as a solvent
(§4) An experimental group B: a low-pressure low-oxygen cabin, and intragastric administration of sc0062 (30 mg/kg) as well as a solvent
(§5) 40 rats are randomly divided into four groups, each group includes 10 rats, 3 groups are placed into a low-pressure low-oxygen cabin, the pressure of the oxygen cabin is regulated to 380 mmHg, a high altitude environment with an altitude of 5,500 meters is simulated, the low-pressure low-oxygen cabin is opened for 1 hour every day so as to add foods and water for animals and carry out corresponding medicine treatment, and meanwhile, the environment where the rats are positioned are kept alternate day and night according to a ratio of 12 h:12 h. After 3 groups of rats are in the oxygen-poor environment for 14 days, intragastric administration is respectively carried out on the 3 groups of rats, the solvent (the model group), the sc0062 (15 mg/kg) and the solvent (the experimental group A) and the sc0062 (30 mg/kg) and the solvent (the experimental group B) are respectively applied to the 3 groups of rats, and the operation is continued for 14 days. Rats in the fourth group (the blank control group) are placed in the same room to be fed in the normal-pressure normal-oxygen environment.
(§6) 3% pentobarbital sodium (0.2 mL/100 g) is intraperitoneally injected to anesthetize the rats, ultrasonic detection is carried out, and the following ultrasonic data is recorded: PAT/PET (pulmonary arterial blood flow acceleration time/right ventricular […]); right ventricular ejection fraction EF; a right ventricular fractional shortening FS; and tricuspid annular plane systolic excursion TAPSE. The anesthetize rats are fixed on an operating table in a supine position mode, tracheotomy is carried out, a breathing machine is connected, and thoracotomy is carried out to expose the hearts. A catheter is inserted into each right ventricle, and the right ventricular systolic pressure is recorded. Then each catheter is slowly pushed forwards, can reach a corresponding pulmonary artery through a corresponding right ventricular outflow tract, the pressure waveform of a monitor is observed, and the mean pulmonary arterial pressure mPAP is recorded. Blood is collected and the rats are executed. The hearts and the lung tissue are taken out, the atrial tissue and the root of the main artery are removed, left and right ventricles are separated, bloodstain is washed out in PBS, moisture is sucked up by filter paper, and the weight of the right ventricles (RV) and the weight of the left ventricles and the […] (LV+IS) are respectively weighed. Calculation is carried out according to the following formula: right ventricular hypertrophy index=RV/(LV+IS).
(§7) All the data is represented by x±s, comparison among the groups is single factor analysis of variance, when P<0.05, it represents that the difference has a statistical significance, and statistical treatment is carried out by adopting an SPSS 22.0 software package.

[2] = test system: pulmonary arterial hypertension of model rats; assay: Rat haemodynamics: mean pulmonary arterial pressure by right heart catheter, low-pressure low-oxygen model; settings: for mPVP: x±s
Procedure: as §1, §2, §3, §4
40 rats are randomly divided into four groups, each group includes 10 rats, 3 groups are placed into a low-pressure low-oxygen cabin, the pressure of the oxygen cabin is regulated to 380 mmHg, a high altitude environment with an altitude of 5,500 meters is simulated, the low-pressure low-oxygen cabin is opened for 1 hour every day so as to add foods and water for animals and carry out corresponding medicine treatment, and meanwhile, the environment where the rats are positioned are kept alternate day and night according to a ratio of 12 h:12 h. […]
3% pentobarbital sodium (0.2 mL/100 g) is intraperitoneally injected to anesthetize the rats, ultrasonic detection is carried out, and the following ultrasonic data is recorded: PAT/PET (pulmonary arterial blood flow acceleration time/right ventricular […]); right ventricular ejection fraction EF; a right ventricular fractional shortening FS; and tricuspid annular plane systolic excursion TAPSE. […] A catheter is inserted into each right ventricle, and the right ventricular systolic pressure is recorded. Then each catheter is slowly pushed forwards, can reach a corresponding pulmonary artery through a corresponding right ventricular outflow tract, the pressure waveform of a monitor is observed, and the mean pulmonary arterial pressure mPAP is recorded. […]

[3] = test system: right ventricular function of rats in low-pressure low-oxygen cabin; assay: Echocardiography of rats in low-pressure low-oxygen cabin (simulated altitude 5,500 m); settings: x±s
Procedure: as §1, §2, §3, §4, §5, §6, §7

[4] = 15 mg/kg intragastric for 14 days after 14 days hypoxia (380 mmHg)
[5] = 30 mg/kg intragastric for 14 days after 14 days hypoxia (380 mmHg)

COCCNS(=O)(=O)Nc1ncnc(OCCOc2ncc(Br)cn2)c1-c1ccc2c(c1)OCO2 [sc0062]
Full heart [1, 4]: 1.47 ± 0.24
RV (weight of the right ventricles) [1, 4]: 0.56 ± 0.09
RV/(LV + IS) right ventricular hypertrophy index [1, 4]: 0.38 ± 0.02
Full heart [1, 5]: 1.30 ± 0.21
RV (weight of the right ventricles) [1, 5]: 0.48 ± 0.11
RV/(LV + IS) right ventricular hypertrophy index [1, 5]: 0.36 ± 0.02
right ventricular hypertrophy index compared with the model group ([1]; experimental groups A and B (15 and 30 mg/kg), p<0.05): reduced
mPVP [2, 4]: 31.39 ± 3.90
mPVP [2, 5]: 26.91 ± 4.35
mean pulmonary arterial pressure compared with the model group ([2]; experimental groups A and B (15 and 30 mg/kg), p<0.01): significantly raised
PAT/PET [3, 4]: 0.39 ± 0.07
Right ventricular EF [3, 4]: 67.25 ± 13.01
Right ventricular FS [3, 4]: 37.02 ± 10.63
TAPSE [3, 4]: 2.05 ± 0.29
PAT/PET [3, 5]: 0.40 ± 0.07
Right ventricular EF [3, 5]: 71.32 ± 9.35
Right ventricular FS [3, 5]: 39.76 ± 7.24
TAPSE [3, 5]: 1.93 ± 0.44
